From patent publication US10961202B2, “Bis-benzimidazole compounds and methods of using the same” (THE SCRIPPS RESEARCH INSTITUTE, priority 2017, dated 2021) come the findings set out here.

The first test has as its system r(CUG)12-MBNL1 complex. Description: Inhibition of the r(CUG)12-MBNL1 complex measured by TR-FRET. The class given is biochemical. The note with it: Table L; 80 nM RNA, 60 nM MBNL1-His6.
Broadly, the IC50 is the point on the concentration scale where inhibition reaches its midpoint. Higher therefore signals weaker potency. As to `N#Cc1ccc2nc(-c3ccc(-c4nc5ccc(C6=NCCN6)cc5[nH]4)cc3)[nH]c2c1` [Compound 13, 2-(4-(6-(4,5-dihydro-1H-imidazol-2-yl)-1H-benzo[d]imidazol-2-yl)phenyl)-1H-benzo[d]imidazole-6-carbonitrile], the IC50 was found to be 48 µM. This lies in the double-digit micromolar range. The same measure, in the same setting: next, `c1ccc(Nc2ccc3nc(-c4ccc(-c5nc6ccc(Nc7ccccn7)cc6[nH]5)cc4)[nH]c3c2)nc1` [Compound 22, 2,2′-(1,4-phenylene)bis(N-(pyridin-2-yl)-1H-benzo[d]imidazol-5-amine)]: 169 µM; `N=C(N)Nc1ccc(-c2nc3cc(-c4ccc5[nH]c(-c6ccc(N)cc6)nc5c4)ccc3[nH]2)cc1` [Compound 167]: 54.4 µM; `C[N+](C)(C)CCNC(=O)c1ccc2nc(-c3ccc(-c4nc5ccc(C(=O)NCC[N+](C)(C)C)cc5[nH]4)cc3)[nH]c2c1` [Compound 31, 2,2′-((2,2′-(1,4-phenylene)bis(1H-benzo[d]imidazole-6,6′-carbonyl))bis(azanediyl))bis(N,N,N-trimethylethanaminium) chloride]: 15.4 µM.

The same test, now with this note: Table M; 80 nM RNA, 60 nM MBNL1-His6.
In turn, `CN(C)CCNC(=O)c1ccc(-c2nc3cc(-c4ccc5[nH]c(-c6ccc(C(=O)NCCNC(=O)c7ccc(-c8nc9cc(-c%10ccc%11[nH]c(-c%12ccc(C(=O)NCCN(C)C)cc%12)nc%11c%10)ccc9[nH]8)cc7)cc6)nc5c4)ccc3[nH]2)cc1` [Compound 412] returned an IC50 of 3.28 µM.

Compound `CN(C)CCCOc1ccc2nc(-c3ccc(-c4nc5ccc(OCCCN(C)C)cc5[nH]4)nn3)[nH]c2c1` [Compound 292] yielded an IC50 of 14 µM. As for `CC(CCCNC(=O)c1ccc(-c2nc3ccc(-c4ccc5nc(-c6ccc(C(=O)NCCN(C)C)cc6)[nH]c5c4)cc3[nH]2)cc1)CNC(=O)c1ccc(-c2nc3ccc(-c4ccc5nc(-c6ccc(C(=O)NCCN(C)C)cc6)[nH]c5c4)cc3[nH]2)cc1` (stereo not shown) [Compound 426], half-maximal inhibition (IC50) required 7.04 µM. With `CN(C)CCCSCCOc1ccc2nc(-c3ccc(-c4nc5ccc(OCCSCCCN(C)C)cc5[nH]4)cc3)[nH]c2c1` [Compound 207], the IC50 was 48.6 µM. Compared with the last compound, the IC50 is about 6.9-fold higher. Compound `C#CCCCNC(=O)CCCOc1ccc2[nH]c(-c3ccc(-c4nc5cc(OCCCN(C)C)ccc5[nH]4)cc3)nc2c1` [Compound 322] yielded an IC50 of 39.8 µM. On to `CN(C)CCNC(=O)c1ccc(-c2nc3cc(-c4ccc5[nH]c(-c6ccc(C(=O)NCCCCCCCCCNC(=O)c7ccc(-c8nc9cc(-c%10ccc%11[nH]c(-c%12ccc(C(=O)NCCN(C)C)cc%12)nc%11c%10)ccc9[nH]8)cc7)cc6)nc5c4)ccc3[nH]2)cc1` [Compound 423], for which half-maximal inhibition (IC50) required 5.31 µM. This IC50 lies about 7.5-fold lower than the previous one. The same measure, in the same setting: next, `CN1CC[C@@H](Oc2ccc3nc(-c4ccc(-c5nc6ccc(O)cc6[nH]5)cc4)[nH]c3c2)C1` [Compound 182]: 93.6 µM; `CN(C)CCNC(=O)COc1ccc2nc(-c3ccc(-c4nc5ccc(OCC(=O)NCCN(C)C)cc5[nH]4)cc3)[nH]c2c1` [Compound 284, 2,2′-((1,4-phenylenebis(1H-benzo[d]imidazole-2,6-diyl))bis(oxy))bis(N-(2-(dimethylamino)ethyl)acetamide)]: 24.1 µM; `Cc1cc(-c2nc3ccc(OCCCN(C)C)cc3[nH]2)ccc1-c1nc2ccc(OCCCN(C)C)cc2[nH]1` [Compound 272]: 95.2 µM. Turning to `CN(C)CCNC(=O)c1ccc(-c2nc3cc(-c4ccc5[nH]c(-c6ccc(C(=O)O)cc6)nc5c4)ccc3[nH]2)cc1` [Compound 390, 4-(2′-(4-((2-(dimethylamino)ethyl)carbamoyl)phenyl)-3H,3′H-[5,5′-bibenzo[d]imidazol]-2-yl)benzoic acid], the half-inhibitory concentration (IC50) was > 200 µM.

Compound `Oc1ccc2nc(-c3ccc(-c4nc5ccc(OCCN6CCCC6)cc5[nH]4)cc3)[nH]c2c1` [Compound 204] registered an IC50 of 129 µM.

As for `CN(C)CCCOc1c(C(C)(C)C)cc(-c2nc3cc(-c4ccc5[nH]c(-c6cc(C(C)(C)C)c(O)c(C(C)(C)C)c6)nc5c4)ccc3[nH]2)cc1C(C)(C)C` [Compound 372, 2,6-di-tert-butyl-4-(2′-(3,5-di-tert-butyl-4-(3-(dimethylamino)propoxy)phenyl)-1H,1′H-[5,5′-bibenzo[d]imidazol]-2-yl)phenol], the half-inhibitory concentration (IC50) is > 200 µM.
